From patent publication US5612378A, “Bis-arylsulfonylaminobenzamide derivatives and the use thereof as factor Xa inhibitors” (priority 1995, dated 1997)

How the values were obtained:
Factor Xa [1] = biological target: T1, Factor Xa (Homo sapiens, UniProt P00742); assay: In vitro inhibition of purified human factor Xa (hydrolysis of Bz-Ile-Glu-Gly-Arg-pNa); type: biochemical; details: purified human enzyme, [Factor Xa]=10 nM, [Bz-Ile-Glu-Gly-Arg-pNa]=26 μM, pH 7.5, 37° C.
T1 construct: purchased Enzyme Research Laboratories, Inc
Method: (§1) The ability of the compounds of the present invention to act as inhibitors of thrombin, factor Xa and plasmin catalytic activity was assessed by determining the concentration which inhibited enzyme activity by 50% using purified human enzymes.
All assays are based on the ability of the test compound to inhibit the hydrolysis of a peptide p-nitroanilide substrate. In a typical experiment, appropriate substrate is prepared in DMSO, and diluted into an assay buffer consisting of 50mM HEPES and 130 mM NaCl at a pH of 7.5. The final concentration for each of the substrates is listed below. […] Test compounds are prepared as 1 mg/ml solutions in DMSO, and three additional 10-fold dilutions in DMSO are prepared. Enzyme solutions are prepared at the concentrations listed below in assay buffer.
(§2) Reactions are initiated by the addition of a 20 μL aliquot of enzyme, and the absorbance increase at 405 nm is recorded for 15 minutes. Data corresponding to less than 10% of the total substrate hydrolysis is used in the calculations. The ratio of the velocity (rate of the change in absorbance as a function of time) for a sample containing no inhibitor is divided by the velocity of a sample containing inhibitor, and is plotted as a function of inhibitor concentration. The inverse of the slope is the concentration of inhibitor which produces a 50% decrease in activity of the enzyme. This concentration is referred to as the IC50.
Factor Xa activity was assessed as the ability to hydrolyse the substrate Bz-Ile-Glu-Gly-Arg-pNa, and was obtained from Sigma. […] Final DMSO concentration was 0.3%.

human α-thrombin = human α-thrombin (Homo sapiens, UniProt P00734); assay: In vitro inhibition of purified human thrombin (hydrolysis of Bz-Phe-Val-Arg-pNa); type: biochemical; details: inhibitor at 6 μM, [thrombin]=36 nM, [Bz-Phe-Val-Arg-pNa]=66 μM, pH 7.5, 37° C.
Method: as §1, with “enzymes. The concentration of added inhibitor that caused a 50% decrease in the initial rate of hydrolysis was defined as the IC50 value.” for “enzymes.”
All assays are based on the ability of the test compound to inhibit the hydrolysis of a peptide p-nitroanilide substrate. In a typical experiment, appropriate substrate is prepared in DMSO, and diluted into an assay buffer consisting of 50mM HEPES and 130 mM NaCl at a pH of 7.5. The final concentration for each of the substrates is listed below. All substrate concentrations are at least 10 fold lower than Km to insure inhibition is competitive. Test compounds are prepared as 1 mg/ml solutions in DMSO, and three additional 10-fold dilutions in DMSO are prepared. Enzyme solutions are prepared at the concentrations listed below in assay buffer.
as §2, with “In a typical IC50 determination, into each well of a 96 well plate is pipetted 280 uL of substrate solution, 10 μL of inhibitor solution, and the plate is allowed to thermally equilibrate at 37° C. in a Molecular Devices Plate Reader for at least 10 minutes. Reactions” for “Reactions”
Thrombin activity was assessed as the ability to hydrolyse the substrate N-benzoyl-Phe-Val-Arg-p-nitroanilide (Bz-Phe-Val-Arg-pNa), and was obtained from Sigma Chemical Company (St. Louis, Mo.). Substrate solutions were prepared at a concentration of 60 μM (60 μM<<Km =1.2 mM) in assay buffer. Final DMSO concentration was 0.3%. […] Final reagent concentrations were: [thrombin]=36 nM, [Bz-Phe-Val-Arg-pNa]=66 μM, [inhibitor]=60 to 0.06 μM.

[2] = given as adjuncts to thrombolysis; cited from earlier work
smooth muscle cell = details: U.S. Pat. No. 5,385,885; cited from earlier work
experimental restenosis = details: in vivo; cited from earlier work
factor Xa [3] = details: cited from earlier work

T1 sequence (P00742 235-488 limits assumed): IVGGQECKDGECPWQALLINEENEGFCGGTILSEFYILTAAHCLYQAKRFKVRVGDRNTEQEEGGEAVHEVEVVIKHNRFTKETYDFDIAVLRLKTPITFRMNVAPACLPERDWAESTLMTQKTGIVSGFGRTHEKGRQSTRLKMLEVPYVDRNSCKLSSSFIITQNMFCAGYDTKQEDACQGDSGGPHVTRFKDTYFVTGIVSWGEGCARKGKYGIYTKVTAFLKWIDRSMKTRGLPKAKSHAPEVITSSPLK
T1 sequence (P00742 41-179 partner limits assumed): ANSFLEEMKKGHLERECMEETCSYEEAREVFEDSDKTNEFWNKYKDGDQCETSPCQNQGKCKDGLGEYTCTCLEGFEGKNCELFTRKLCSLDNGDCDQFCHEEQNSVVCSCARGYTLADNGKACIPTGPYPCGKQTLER

Molecule: O=C(NCCCCCCCCNC(=O)c1cccc(NS(=O)(=O)c2ccc3ccccc3c2)c1)c1cccc(NS(=O)(=O)c2ccc3ccccc3c2)c1 [Example 5, 1,8-di[3-(2-naphthalenylsulfonylamino)benzamido]octane]
- IC50 (Factor Xa [1]): 2.1 µM
- inhibition at 6 µM (human α-thrombin): 20%

Molecule: TAP: soft tick derived protein TAP (tick anticoagulant peptide) (YNRLCIKPRDWIDECDSNEGGERAYFRNGKGGCDSFWICPEDHTGADYYSSYRDCFNACI; UniProt P17726 1-60, looked up)
- clot lysis and reocclusion [2]: accelerated clot lysis and prevented reocclusion
- smooth muscle cell proliferation inhibitory activity (smooth muscle cell): smooth muscle cell proliferation inhibitory activity
- reduction of experimental restenosis (experimental restenosis): reduce experimental restenosis

Molecule: O=C(NCCCCCNC(=O)c1cccc(NS(=O)(=O)c2ccc3ccccc3c2)c1)c1cccc(NS(=O)(=O)c2ccc3ccccc3c2)c1 [Example 4, 1,5-di[3-(2-naphthalenylsulfonylamino)benzamido]pentane]
- IC50 (Factor Xa [1]): 3 µM
- inhibition at 6 µM (human α-thrombin): 0%

Molecule: O=C(NCc1cccc(CNC(=O)c2cccc(NS(=O)(=O)c3ccc4ccccc4c3)c2)c1)c1cccc(NS(=O)(=O)c2ccc3ccccc3c2)c1 [Example 7, 1,3-di-[3-(2-naphthalenylsulfonylamino)benzamidomethyl]benzene]
- IC50 (Factor Xa [1]): 2.4 µM
- inhibition at 6 µM (human α-thrombin): 20%

Molecule: O=C(NCCCN1CCN(CCCNC(=O)c2cccc(NS(=O)(=O)c3ccc4ccccc4c3)c2)CC1)c1cccc(NS(=O)(=O)c2ccc3ccccc3c2)c1 [Example 6, 1,4-di-[3-(2-naphthalenylsulfonylamino)benzamidopropyl]piperazine]
- IC50 (Factor Xa [1]): 5.2 µM
- inhibition at 6 µM (human α-thrombin): 0%

Molecule: ecotin: The peptide ecotin is another selective, reversible, tight-binding inhibitor of factor Xa
- inhibition of factor Xa (factor Xa [3]): selective, reversible, tight-binding inhibitor of factor Xa

B1: antistasin: leech-derived, 119-amino acid protein antistasin (protein, UniProt P15358 18-136, looked up)
Antistasin: QGPFGPGCEEAGCPEGSACNIITDRCTCSGVRCRMHCPHGFQRSRYGCEFCKCRLEPMKATCDISECPEGMMCSRLTNKCDCKIDINCRKTCPNGLKRDKLGCEYCECRPKRKLIPRLS
- clot lysis and reocclusion [2]: accelerated clot lysis and prevented reocclusion
- smooth muscle cell proliferation inhibitory activity (smooth muscle cell): smooth muscle cell proliferation inhibitory activity
- reduction of experimental restenosis (experimental restenosis): reduce experimental restenosis
